Results on 1 compound are retold here after the kinase profiling compilation of Christmann-Franck et al. (2016).

What all share (assay): radiometric filter-binding kinase assay, Kinaseprofiler
One assay has as its target PRKCI (human) (UniProt P41743). The settings on record: compound 1.0 µM; ATP 155 µM.
Assay [1] concerns DDR2 (human), Q16832 [S642A]. The settings on record: compound 1.0 µM; ATP 200 µM.
Assay [2] deals with BLK (human), P51451 [M278V]. To be noted: compound 1.0 µM; ATP 45 µM.
The next assay deals with SRC (human) (UniProt P12931). To be noted: compound 1.0 µM; ATP 200 µM.
In a further assay the target is PRKCG (human) (UniProt P05129). The settings on record: compound 1.0 µM; ATP 15 µM.
The target of another assay is FLT3 (human) (UniProt P36888). To be noted: compound 1.0 µM; ATP 200 µM.
The target in another assay is SYK (human) (UniProt P43405). To be noted: compound 1.0 µM; ATP 15 µM.
The next assay concerns the target PRKCA (human) (UniProt P17252). To be noted: compound 1.0 µM; ATP 45 µM.
The next assay addresses CDK6 CCND3 (human) (UniProt P30281+Q00534). To be noted: compound 1.0 µM; ATP 200 µM.
The target in a further assay is HCK (human) (UniProt P08631). The settings on record: compound 1.0 µM; ATP 70 µM.
In another assay the target is MAP2K6 (human) (UniProt P52564). To be noted: compound 1.0 µM; ATP 10 µM.
In the next assay the target is FRK (human) (UniProt P42685). To be noted: compound 1.0 µM; ATP 155 µM.
Another assay concerns the target NEK3 (human) (UniProt P51956). To be noted: compound 1.0 µM; ATP 120 µM.
The target in the next assay is PDPK1 (human) (UniProt O15530). The settings on record: compound 1.0 µM; ATP 10 µM.
The test system of assay [3] is EPHB2 (human), P29323 [A848S/K918E]. To be noted: compound 1.0 µM; ATP 10 µM.
For another assay, the target named is SRPK3 (human) (UniProt Q9UPE1). The settings on record: compound 1.0 µM; ATP 15 µM.
In the next assay the target is RPS6KA5 KD1 KD2 (human) (UniProt O75582). To be noted: compound 1.0 µM; ATP 90 µM.
The test system of assay [4] is GSK3B (human), P49841 [H350L]. The settings on record: compound 1.0 µM; ATP 15 µM.
The test system of assay [5] is EGFR (human), P00533 [L861Q]. The settings on record: compound 1.0 µM; ATP 10 µM.
A further assay has as its target RIPK2 (human) (UniProt O43353). The settings on record: compound 1.0 µM; ATP 120 µM.
The target of assay [6] is JAK2 JH1 catalytic (human) (UniProt O60674). The settings on record: compound 1.0 µM; ATP 45 µM.
The target of the next assay is PIM2 (human) (UniProt Q9P1W9). To be noted: compound 1.0 µM; ATP 15 µM.
PIM2 (human), sequence (Q9P1W9 whole entry, looked up): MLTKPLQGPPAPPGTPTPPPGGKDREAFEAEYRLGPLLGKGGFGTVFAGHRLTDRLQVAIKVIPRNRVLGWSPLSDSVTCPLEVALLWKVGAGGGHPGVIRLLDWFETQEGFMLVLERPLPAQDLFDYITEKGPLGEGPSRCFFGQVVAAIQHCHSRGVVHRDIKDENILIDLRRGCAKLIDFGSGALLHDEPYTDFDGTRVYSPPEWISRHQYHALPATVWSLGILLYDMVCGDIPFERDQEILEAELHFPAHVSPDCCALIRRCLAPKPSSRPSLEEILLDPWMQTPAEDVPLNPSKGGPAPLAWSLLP

NEK3 (human), sequence (P51956 whole entry, looked up): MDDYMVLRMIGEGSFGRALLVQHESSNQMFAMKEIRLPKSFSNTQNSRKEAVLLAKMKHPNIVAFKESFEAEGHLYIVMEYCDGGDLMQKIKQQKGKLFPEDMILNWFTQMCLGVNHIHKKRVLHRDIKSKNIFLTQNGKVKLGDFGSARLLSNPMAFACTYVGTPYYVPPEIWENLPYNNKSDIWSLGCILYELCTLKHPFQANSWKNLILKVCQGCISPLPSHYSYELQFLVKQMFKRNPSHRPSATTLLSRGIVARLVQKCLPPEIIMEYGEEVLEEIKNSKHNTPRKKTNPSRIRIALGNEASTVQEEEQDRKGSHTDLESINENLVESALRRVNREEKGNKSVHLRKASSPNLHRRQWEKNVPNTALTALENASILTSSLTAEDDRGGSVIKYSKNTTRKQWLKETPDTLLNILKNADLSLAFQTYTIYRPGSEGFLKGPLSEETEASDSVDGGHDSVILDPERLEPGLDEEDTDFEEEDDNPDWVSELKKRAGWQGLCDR
FRK (human), sequence (P42685 whole entry, looked up): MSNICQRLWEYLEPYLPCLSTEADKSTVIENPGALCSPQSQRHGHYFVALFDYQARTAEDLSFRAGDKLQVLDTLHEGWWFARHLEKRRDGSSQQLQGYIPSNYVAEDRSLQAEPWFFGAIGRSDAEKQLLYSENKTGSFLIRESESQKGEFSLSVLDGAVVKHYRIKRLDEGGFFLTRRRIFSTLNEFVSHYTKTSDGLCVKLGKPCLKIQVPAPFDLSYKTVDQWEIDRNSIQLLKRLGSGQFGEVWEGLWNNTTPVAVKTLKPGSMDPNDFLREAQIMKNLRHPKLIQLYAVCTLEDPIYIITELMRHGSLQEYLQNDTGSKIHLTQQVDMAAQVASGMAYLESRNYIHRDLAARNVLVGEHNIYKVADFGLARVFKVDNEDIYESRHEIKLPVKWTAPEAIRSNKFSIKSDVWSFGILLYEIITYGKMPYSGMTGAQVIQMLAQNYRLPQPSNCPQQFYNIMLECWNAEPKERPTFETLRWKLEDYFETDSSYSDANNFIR
MAP2K6 (human), sequence (P52564 whole entry, looked up): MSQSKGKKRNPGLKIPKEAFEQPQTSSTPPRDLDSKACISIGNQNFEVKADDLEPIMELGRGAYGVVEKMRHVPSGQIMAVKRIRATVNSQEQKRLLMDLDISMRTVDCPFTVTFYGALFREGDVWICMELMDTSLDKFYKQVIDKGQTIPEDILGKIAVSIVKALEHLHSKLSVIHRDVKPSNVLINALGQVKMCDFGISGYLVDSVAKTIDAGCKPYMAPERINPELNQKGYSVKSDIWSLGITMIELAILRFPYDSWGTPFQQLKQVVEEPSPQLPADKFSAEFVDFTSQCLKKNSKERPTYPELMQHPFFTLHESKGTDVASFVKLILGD
SRC (human), sequence (P12931 whole entry, looked up): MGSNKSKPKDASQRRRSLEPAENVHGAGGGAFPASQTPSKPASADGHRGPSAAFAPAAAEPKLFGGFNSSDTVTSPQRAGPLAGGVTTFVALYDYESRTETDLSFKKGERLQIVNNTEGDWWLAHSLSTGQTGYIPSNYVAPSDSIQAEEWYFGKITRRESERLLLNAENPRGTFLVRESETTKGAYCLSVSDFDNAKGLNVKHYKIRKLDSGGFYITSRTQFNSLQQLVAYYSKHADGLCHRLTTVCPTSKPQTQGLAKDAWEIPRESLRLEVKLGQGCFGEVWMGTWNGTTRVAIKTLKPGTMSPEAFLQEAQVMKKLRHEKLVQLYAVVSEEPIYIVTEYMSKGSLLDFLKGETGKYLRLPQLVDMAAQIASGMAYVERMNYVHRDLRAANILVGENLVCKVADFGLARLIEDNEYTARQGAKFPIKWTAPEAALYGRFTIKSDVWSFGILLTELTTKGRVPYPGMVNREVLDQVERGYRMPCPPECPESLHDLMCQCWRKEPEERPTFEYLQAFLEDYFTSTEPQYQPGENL
CDK6 CCND3 (human), sequence (P30281 whole entry, looked up): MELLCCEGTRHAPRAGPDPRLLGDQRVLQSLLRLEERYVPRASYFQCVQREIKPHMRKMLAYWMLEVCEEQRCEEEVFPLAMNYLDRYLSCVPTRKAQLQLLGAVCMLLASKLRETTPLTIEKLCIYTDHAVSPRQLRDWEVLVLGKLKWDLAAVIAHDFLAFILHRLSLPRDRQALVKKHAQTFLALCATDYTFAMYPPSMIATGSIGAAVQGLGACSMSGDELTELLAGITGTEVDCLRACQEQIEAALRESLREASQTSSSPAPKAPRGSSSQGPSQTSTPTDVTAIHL
CDK6 CCND3 (human), sequence (Q00534 whole entry, looked up): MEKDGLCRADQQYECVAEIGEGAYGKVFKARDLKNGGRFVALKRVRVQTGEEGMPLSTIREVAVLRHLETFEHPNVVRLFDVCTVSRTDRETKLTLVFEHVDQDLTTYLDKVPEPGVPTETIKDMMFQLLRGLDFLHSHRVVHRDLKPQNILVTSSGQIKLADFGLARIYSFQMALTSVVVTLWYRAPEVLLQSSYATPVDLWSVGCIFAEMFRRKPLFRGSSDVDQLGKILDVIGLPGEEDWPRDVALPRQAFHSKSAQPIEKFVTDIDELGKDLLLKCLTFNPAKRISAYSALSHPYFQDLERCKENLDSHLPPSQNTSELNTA
DDR2 (human), Q16832 [S642A], sequence (Q16832 whole entry, looked up, stated change not applied): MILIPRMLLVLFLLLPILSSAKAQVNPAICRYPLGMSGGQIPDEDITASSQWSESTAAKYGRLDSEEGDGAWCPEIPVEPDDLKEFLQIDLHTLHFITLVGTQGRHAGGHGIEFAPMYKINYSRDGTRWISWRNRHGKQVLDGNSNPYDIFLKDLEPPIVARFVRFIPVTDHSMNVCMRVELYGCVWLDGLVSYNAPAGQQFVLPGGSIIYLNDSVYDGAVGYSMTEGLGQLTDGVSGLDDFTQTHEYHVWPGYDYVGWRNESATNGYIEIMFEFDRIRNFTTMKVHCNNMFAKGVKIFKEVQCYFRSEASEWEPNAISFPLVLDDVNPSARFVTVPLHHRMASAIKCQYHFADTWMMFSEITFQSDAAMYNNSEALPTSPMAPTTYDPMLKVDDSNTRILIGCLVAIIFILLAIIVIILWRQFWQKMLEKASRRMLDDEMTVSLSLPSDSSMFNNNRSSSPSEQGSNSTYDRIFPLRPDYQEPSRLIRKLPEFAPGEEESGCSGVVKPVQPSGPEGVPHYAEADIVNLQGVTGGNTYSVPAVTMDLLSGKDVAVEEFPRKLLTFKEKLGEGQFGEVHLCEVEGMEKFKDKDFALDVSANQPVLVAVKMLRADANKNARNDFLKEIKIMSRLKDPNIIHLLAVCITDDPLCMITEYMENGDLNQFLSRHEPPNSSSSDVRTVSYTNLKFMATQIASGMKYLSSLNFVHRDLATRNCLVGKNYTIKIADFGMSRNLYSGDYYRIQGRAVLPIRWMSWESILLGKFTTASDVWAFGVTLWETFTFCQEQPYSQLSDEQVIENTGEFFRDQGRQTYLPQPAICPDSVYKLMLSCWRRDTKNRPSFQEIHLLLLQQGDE
SRPK3 (human), sequence (Q9UPE1 whole entry, looked up): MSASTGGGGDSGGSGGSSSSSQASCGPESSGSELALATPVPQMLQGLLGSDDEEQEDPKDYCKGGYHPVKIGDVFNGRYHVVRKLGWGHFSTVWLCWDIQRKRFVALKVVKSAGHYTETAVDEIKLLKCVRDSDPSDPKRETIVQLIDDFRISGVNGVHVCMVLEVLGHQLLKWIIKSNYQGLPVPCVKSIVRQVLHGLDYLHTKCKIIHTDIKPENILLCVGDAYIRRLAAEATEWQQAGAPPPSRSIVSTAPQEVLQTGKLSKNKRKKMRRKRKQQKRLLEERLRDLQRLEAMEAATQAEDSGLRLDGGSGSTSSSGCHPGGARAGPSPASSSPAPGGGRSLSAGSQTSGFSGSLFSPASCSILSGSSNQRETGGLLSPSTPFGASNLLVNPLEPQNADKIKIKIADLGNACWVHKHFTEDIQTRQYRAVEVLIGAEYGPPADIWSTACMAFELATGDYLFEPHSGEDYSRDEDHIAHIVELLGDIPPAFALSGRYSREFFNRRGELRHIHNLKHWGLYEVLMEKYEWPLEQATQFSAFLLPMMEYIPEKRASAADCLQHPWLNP

As usually defined, the residual activity is the signal under treatment as a percentage of the control signal. `CN(C)S(=O)(=O)Nc1ccc2ccc3ncc(-c4cnn(C)c4)cc3c(=O)c2c1`: the residual activity was 108% at PRKCI (human); 108% in assay [1]; 83% in [2]; 125% at SRC (human); 101% on PRKCG (human); 26% at FLT3 (human). The residual activity at SYK (human) was 94%; on PRKCA (human) it was 105%; at CDK6 CCND3 (human) it was 108%; on HCK (human), 33%; on MAP2K6 (human), 117%; at FRK (human), 104%. Also, the residual activity on NEK3 (human) is 104%; on PDPK1 (human), 105%; in assay [3] it was 103%; at SRPK3 (human), 83%; on RPS6KA5 KD1 KD2 (human), 101%; in assay [4], 110%. The residual activity in [5] came to 97%; on RIPK2 (human) it was 35%; in [6], 43%; on PIM2 (human), 98%.
